Data on five molecules can be found in patent US20230218632A1, “CYCLIC SULFONAMIDE DERIVATIVES AS TRAP1 MODULATORS AND USES THEREOF” (Amathus Therapeutics, Inc., priority 2020, published 2023).

The EC50 is the concentration that produces a half-maximal response. In general, Emax refers to the size of the effect at its maximum, as opposed to the concentration needed.

The target of the experiment is T1, TRAP1 enzyme (Homo sapiens, UniProt Q12931).
T1 sequence (Q12931 60-704): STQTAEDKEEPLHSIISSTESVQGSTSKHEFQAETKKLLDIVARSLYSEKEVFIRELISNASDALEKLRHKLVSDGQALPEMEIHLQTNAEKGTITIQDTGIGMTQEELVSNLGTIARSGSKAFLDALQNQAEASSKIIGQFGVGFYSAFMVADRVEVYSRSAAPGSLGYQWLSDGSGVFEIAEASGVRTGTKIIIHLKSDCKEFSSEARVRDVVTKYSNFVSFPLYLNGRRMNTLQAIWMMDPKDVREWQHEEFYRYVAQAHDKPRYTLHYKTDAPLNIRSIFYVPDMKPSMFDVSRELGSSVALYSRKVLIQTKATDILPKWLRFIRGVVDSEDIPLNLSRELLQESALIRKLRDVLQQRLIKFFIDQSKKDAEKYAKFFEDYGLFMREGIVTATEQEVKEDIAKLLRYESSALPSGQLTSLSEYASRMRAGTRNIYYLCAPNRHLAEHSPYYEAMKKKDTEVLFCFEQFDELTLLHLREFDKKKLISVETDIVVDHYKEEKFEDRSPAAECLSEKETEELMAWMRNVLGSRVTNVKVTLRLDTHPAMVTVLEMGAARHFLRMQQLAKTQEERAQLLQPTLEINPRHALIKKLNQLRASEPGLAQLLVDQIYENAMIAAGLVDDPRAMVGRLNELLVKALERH
Kind of experiment: ADP Glo assay (ATPase activity of TRAP1). It is filed as biochemical. The conditions noted are these: for EC50: 150 nM Trap1, 20 µM ATP, concentration for half maximal activation, read-out: ADP GLO DRC: GeoMean EC50; for Emax: maximal percent activation, read-out: ADP GLO DRC: Mean Emax. The gist of the method: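 150 nM TRAP1 preincubated 30 min at 37 °C with compound (0.79–100 µM) in 25 mM Pipes pH 7.5, 40 mM KCl, 0.05 mM MgCl2; reaction started with 20 µM ATP, 60 min at 37 °C. ADP quantified by ADP-Glo luminescence against an ATP/ADP standard curve; Emax and EC50 from sigmoidal fits of activation.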
On the technique in general: ADP-Glo turns the ADP formed in a reaction into a luminescent signal.

With `Cc1cncc(C(=O)Nc2ccc3c(c2)S(=O)(=O)N(c2ccc(C(F)(F)F)cc2)CCO3)c1` [Compound 2191], the EC50 is less than 20 µM and the maximum response (Emax) fell in the range of 150 to 200%.

As for `O=C(Nc1ccc2c(c1)S(=O)(=O)N(c1ccc(C(F)(F)F)cc1)CCO2)c1cncs1` [Compound 2180], the EC50 fell in the range of 20 to 30 µM and the Emax was 150 to 200%.

As to `CC(C)n1cc(C(=O)Nc2ccc3c(c2)S(=O)(=O)N(c2ccc(C(F)(F)F)cc2)CCO3)cn1` [Compound 2192], the 50% effective concentration (EC50) lay within 20 to 30 µM and the Emax was in the range of 129 to 149%.

`O=C(Nc1ccc2c(c1)S(=O)(=O)N(c1ccc(C(F)(F)F)cc1)CCO2)c1cnccc1F` [Compound 2264]: the EC50 was 20 to 30 µM and the Emax lay within 129 to 149%.

As for `Cc1ccnc(C(=O)Nc2ccc3c(c2)S(=O)(=O)N(c2ccc(C(F)(F)F)cc2)CCO3)n1` [Compound 2261], the EC50 is 30 to 100 µM and the Emax lay within 150 to 200%.
